# Data taken from article PMC9820279 (International Journal of Molecular Sciences, 2022).
# Where two headings read alike, the source gives them in different places.
# Key:
# [1] = design: method as in PMID 35782945, PMID 34869538, PMID 34209864, PMID 35498984, PMID 34923590; conditions: previously studied by the group; cited from earlier work
# [2] = system: AChE; conditions: previously studied by the group; cited from earlier work
# [3] = system: BChE; conditions: previously studied by the group; cited from earlier work
# [4] = system: HBMEC monolayer
# Protocol: The cell line HBMEC was used as a simplified in vitro model of the BBB endothelium. […] Endothelial cell cultures were maintained at 37 °C in a humid atmosphere enriched with 5% CO2. In our studies, HBMEC were used between passage 25 and 29. For experiments, HBMECs were seeded using a volume of 200 µL at a density of 8 × 10^4 cells/mL in rat tail collagen-I (100 µg/mL) coated 96-well plates (for viability assay) or 500 µL at a density of 1.6 × 10^5 cells/mL in rat tail collagen-I (100 µg/mL) coated semi-permeable membranes in transwell inserts (0.4 µm pore, Corning Costar Corp., USA; for BBB integrity and transport assays) for 12-well plates. The incubation timepoints were assay dependent.
# For the transendothelial transport assays, HBMEC were seeded on transwell inserts as described above and are schematically depicted in Figure 1a. After seeding, the media were changed every two days. Four days post-seeding, the HBMEC monolayer was formed, and the transport studies were performed. […] Vupper and Vlower is the upper and lower compartment volume (0.5 and 1.5 mL, respectively). The culture inserts were used for the subsequent integrity permeability studies.
# [5] = cited from earlier work; for Detection in the PAMPA-BBB model: OL-SS extract compounds; for Detection in the lower well of the PAMPA-BBB model: ASFE extract compounds
# [6] = system: LOX; design: method as in PMID 35782945, PMID 34869538, PMID 34209864, PMID 35498984, PMID 34923590; conditions: previously studied by the group; cited from earlier work
compound,measurement,setting,value
O=C1O[C@H]([C@@H](O)CO)C(O)=C1O [Ascorbic acid],RNS IC50,[1],1100.9 mg/L
COc1ccc2c3c1O[C@H]1C[C@@H](O)C=C[C@@]31CCN(C)C2 [Galantamine],AChE IC50,[2],0.40 mg/L
same,BChE IC50,[3],2.36 mg/L
C[C@H]1[C@H](C)CC[C@]2(C)CC[C@]3(C)C(=CC[C@@H]4[C@@]5(C)CC[C@H](O)C(C)(C)[C@@H]5CC[C@]43C)[C@H]12 [α-Amyrin],Detection in basolateral compartment (brain side) of HBMEC-BBB model,[4]; OL-SS extract,not detected
same,Detection in the PAMPA-BBB model,[5],not detected
O=c1c(O)c(-c2ccc(O)c(O)c2)oc2cc(O)cc(O)c12 [Quercetin],LOX IC50,[6],125.7 mg/L
CC(C)=CCC/C(C)=C\CO [Nerol],Detection in basolateral compartment (brain side) of HBMEC-BBB model,[4]; PLE100 extract,detected in the basolateral compartment
same,Te % (SEM) 2 h,[4]; human,26.8 (0.2) %
same,Te % (SEM) 4 h,[4]; human,41.5 (3.1) %
same,Crossing of the PAMPA-BBB system,[5]; PLE100 extract compounds,could not cross
Oc1cccc(O)c1O [Pyrogallol],Detection / transport to lower compartment (brain side) of HBMEC-BBB model,[4],could reach the “brain side”
same,Te % (SEM) 2 h,"[4]; human, 2 h, 24 µg/mL",37.6 (2.6) %
same,Te % (SEM) 4 h,"[4]; human, 4 h, 24 µg/mL",80.5 (1.1) %
same,Detection in the lower well of the PAMPA-BBB model,[5],not detected in the lower well
O=C1c2c(O)cc(O)cc2O[C@H](c2ccc(O)cc2)[C@H]1O [Aromadendrin],Detection / transport to lower compartment (brain side) of HBMEC-BBB model,[4]; ASFE extract,could reach the “brain side”
same,Te % (SEM) 2 h,"[4]; matrix ASFE extract 24 µg/mL, 2 h incubation, n.d = not detected in lower compartment",76.2 (0.8) %
same,Te % (SEM) 4 h,"[4]; matrix ASFE extract 24 µg/mL, 4 h incubation, n.d = not detected in lower compartment",78.7 (0.7) %
same,Detection in the lower well of the PAMPA-BBB model,[5],not detected in the lower well
O=C(/C=C/c1ccc(O)c(O)c1)O[C@@H](C(=O)O)[C@@H](O)C(=O)O [Caftaric acid],Detection / transport to lower compartment (brain side) of HBMEC-BBB model,[4],could reach the “brain side”
same,Te % (SEM) 2 h,"[4]; human, 2 h, 24 µg/mL",46.3 (3.6) %
same,Te % (SEM) 4 h,"[4]; human, 4 h, 24 µg/mL",87.6 (3.5) %
same,Detection in the lower well of the PAMPA-BBB model,[5],not detected in the lower well
C[C@H]1[C@H](C)CC[C@]2(CO)CC[C@]3(C)C(=CC[C@@H]4[C@@]5(C)CC[C@H](O)C(C)(C)[C@@H]5CC[C@]43C)[C@H]12 [uvaol],Detection in basolateral compartment (brain side) of HBMEC-BBB model,[4]; OL-SS extract,detected
same,Detection in the PAMPA-BBB model,[5],detected in the acceptor well
O=c1oc2c(O)c(O)cc3c(=O)oc4c(O)c(O)cc1c4c23 [Ellagic acid],Detection / transport to lower compartment (brain side) of HBMEC-BBB model,[4],could reach the “brain side”
same,Te % (SEM) 2 h,"[4]; human, 2 h, 24 µg/mL",42.4 (1.6) %
same,Te % (SEM) 4 h,"[4]; human, 4 h, 24 µg/mL",85.5 (2.5) %
same,Detection in the lower well of the PAMPA-BBB model,[5],not detected in the lower well
